According to the supplement of paper PMC10307832:

How the values were obtained:
Assay in all cases: relative viability (nuclei count vs DMSO), 5 days (fraction); higher = more cells survive
[1] = compound: Cn1cc(-c2cnn3c(N)c(Br)c([C@@H]4CCCNC4)nc23)cn1 + COc1cccc2cc(-c3nc([C@H]4CC[C@H](C(=O)O)CC4)n4ncnc(N)c34)[nH]c12 [OSI-027] (partner 0.5 µM)
Outline: (§1)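 One day after seeding in 1536-well plates, lung cancer cell lines were dosed by pin tool. Dosing was either single-drug or a fixed anchor-drug dose plus five library-drug doses (not always all listed) in √10 steps. After 5 days, nuclei were stained in one fix-and-stain step and counted on 4× images, and relative viability is the nuclei count of treated wells over that of vehicle wells, given as the median of duplicate plates.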

[2] = compound: Cn1cc(-c2cnn3c(N)c(Br)c([C@@H]4CCCNC4)nc23)cn1 + CS(=O)(=O)CCNCc1ccc(-c2ccc3ncnc(Nc4ccc(OCc5cccc(F)c5)c(Cl)c4)c3c2)o1 [Lapatinib] (partner 2 µM)
Outline: as §1

[3] = compound: Cn1cc(-c2cnn3c(N)c(Br)c([C@@H]4CCCNC4)nc23)cn1 + C[C@]1(O)C[C@@H](c2nc(-c3ccc4ccc(-c5ccccc5)nc4c3)c3c(N)nccn32)C1 [Linsitinib] (partner 1 µM)
Outline: as §1

[4] = compound: Cn1cc(-c2cnn3c(N)c(Br)c([C@@H]4CCCNC4)nc23)cn1 + Cc1nc(NC(=O)N2CCC[C@H]2C(N)=O)sc1-c1ccnc(C(C)(C)C(F)(F)F)c1 [Alpelisib] (partner 2 µM)
Outline: as §1

| Cell Line | relative viability ([1]; first compound 0.05 µM) | relative viability ([1]; first compound 0.5 µM) | relative viability ([1]; first compound 1.581 µM) | relative viability ([1]; first compound 5 µM) | relative viability ([2]; first compound 0.05 µM) | relative viability ([2]; first compound 0.1581 µM) | relative viability ([2]; first compound 0.5 µM) | relative viability ([2]; first compound 1.581 µM) | relative viability ([2]; first compound 5 µM) | relative viability ([3]; first compound 0.05 µM) | relative viability ([3]; first compound 0.1581 µM) | relative viability ([3]; first compound 0.5 µM) | relative viability ([3]; first compound 1.581 µM) | relative viability ([3]; first compound 5 µM) | relative viability ([4]; first compound 0.05 µM) | relative viability ([4]; first compound 0.1581 µM) | relative viability ([4]; first compound 0.5 µM) | relative viability ([4]; first compound 1.581 µM) | relative viability ([4]; first compound 5 µM) | relative viability ([1]; first compound 0.1581 µM) |
| --- | --- | --- | --- | --- | --- | --- | --- | --- | --- | --- | --- | --- | --- | --- | --- | --- | --- | --- | --- | --- |
| 201T | 0.777 | 0.656 | 0.532 | 0.241 | 1 | 1.09 | 1.02 | 0.951 | 1.11 | 1.08 | 1.05 | 1.12 | 0.97 | 0.936 | 1.04 | 1.02 | 1.05 | 0.98 | 0.909 | – |
| A549 | – | – | – | – | 1.03 | 1.11 | 0.909 | 0.795 | 0.643 | 0.653 | 0.664 | 0.48 | 0.588 | 0.43 | 0.659 | 0.822 | 0.653 | 0.752 | 0.495 | – |
| A-427 | 0.495 | 0.453 | 0.357 | 0.31 | 0.979 | 1.14 | 0.986 | 0.839 | 0.959 | 1.12 | 1.15 | 1.06 | 1.06 | 1 | 1.11 | 1.05 | 1.15 | 0.977 | 1.01 | 0.474 |
| ABC-1 | 0.518 | 0.382 | 0.39 | 0.264 | 1.18 | 1.18 | 1.18 | 1.26 | 1.04 | 0.801 | 1.01 | 0.781 | 0.716 | 0.288 | 1.14 | 1.03 | 0.814 | 0.917 | 0.401 | 0.58 |
| BEN | 0.481 | 0.251 | 0.572 | 0.295 | 0.84 | 0.762 | 0.655 | 0.736 | 0.516 | 1.04 | 0.977 | 0.918 | 0.686 | 0.738 | 0.891 | 1.15 | 1.05 | 0.869 | 0.778 | 0.288 |
| CAL-12T | 0.554 | 0.682 | 0.266 | 0.121 | 0.713 | 0.735 | 0.723 | 0.618 | 0.395 | 0.786 | 0.929 | 0.809 | 0.616 | 0.262 | 1.27 | 1.29 | 0.937 | 0.716 | 0.228 | 0.841 |
| COR-L23 | 0.813 | 0.671 | 0.393 | 0.255 | 0.966 | 1.26 | 1.03 | 0.471 | 0.445 | 0.835 | 1.16 | 1.05 | 0.688 | 0.363 | 0.768 | 1.09 | 0.981 | 0.589 | 0.306 | 0.927 |
| COR-L 105 | 0.632 | 0.688 | 0.587 | 0.487 | 0.323 | 0.386 | 0.393 | 0.354 | 0.311 | 0.898 | 0.719 | 0.89 | 0.878 | 0.645 | 0.962 | 1 | 0.978 | 0.734 | 0.572 | 0.818 |
| Calu-6 | – | – | – | – | 1.2 | 0.745 | 0.678 | 0.329 | 0.193 | 0.898 | 1.1 | 0.945 | 0.52 | 0.176 | 0.98 | 0.82 | 0.883 | 0.379 | 0.182 | – |
| ChaGo-K-1 | 0.557 | 0.61 | 0.535 | 0.642 | – | – | – | – | – | – | – | – | – | – | – | – | – | – | – | 0.638 |
| EBC-1 | – | – | – | – | 0.207 | 0.183 | 0.24 | 0.223 | 0.192 | 0.937 | 1.09 | 0.933 | 0.884 | 0.799 | 0.902 | 0.913 | 0.704 | 0.774 | 0.753 | – |
| EKVX | 0.676 | 0.733 | 0.71 | 0.633 | 0.204 | 0.215 | 0.192 | 0.193 | 0.184 | 1.02 | 1.06 | 0.946 | 0.68 | 0.874 | 0.908 | 1.05 | 0.91 | 0.694 | 0.753 | 0.75 |
| EMC-BAC-2 | 0.368 | 0.408 | 0.37 | 0.355 | 0.843 | 0.987 | 0.961 | 0.852 | 0.889 | 0.834 | 0.904 | 0.849 | 0.663 | 0.836 | 0.778 | 0.885 | 0.66 | 0.708 | 0.81 | 0.367 |
| EPLC-272H | 0.256 | 0.359 | 0.224 | 0.166 | 0.849 | 0.991 | 0.843 | 0.688 | 0.674 | 1.26 | 1.18 | 1.24 | 1.25 | 1.12 | 0.93 | 0.902 | 1.01 | 0.956 | 0.824 | 0.309 |
| H3255 | 0.744 | 0.601 | 0.584 | 0.481 | 0.25 | 0.214 | 0.247 | 0.264 | 0.204 | 0.989 | 1.05 | 0.929 | 0.769 | 0.684 | 0.776 | 0.722 | 0.684 | 0.626 | 0.494 | 0.523 |
| HARA | 0.469 | 0.685 | 0.408 | 0.149 | 0.728 | 0.873 | 1.08 | 0.626 | 0.179 | 1.11 | 1.03 | 1.23 | 0.761 | 0.402 | 0.875 | 0.701 | 0.792 | 0.806 | 0.619 | 0.606 |
| HCC-15 | 0.781 | 0.682 | 0.566 | 0.533 | 0.952 | 0.949 | 0.648 | 0.811 | 0.827 | 0.98 | 0.997 | 0.824 | 0.838 | 0.829 | 0.981 | 1.01 | 0.863 | 0.782 | 0.901 | 0.739 |
| HCC-44 | – | 0.683 | 0.414 | 0.434 | 1.01 | 1.15 | 1.1 | 0.8 | 0.968 | 0.685 | 0.872 | 0.821 | 0.65 | 0.631 | 0.876 | 0.899 | 0.759 | 0.747 | 0.786 | 0.604 |
